Results reported in US6511965B2, “Ether type lipid A 1-carboxylic acid analogs” (Sankyo Company, Limited, priority 1999, dated 2003).
Where two headings read alike, the source gives them in different places.

Experiments:
[1] = system: TNF α production by U937 cells; assay: Test on macrophage activity inhibition (antagonist test): LPS antagonistic activity on TNFα production by U937 cells; format: cell-based; conditions: in the presence of 10 ng/ml of LPS, human monocytic U937 cells, 6 hours, TNFα by ELISA, concentration suppressing TNFα to 50% of standard production amount, read-out: IC50(nM), LPS antagonistic activities of the compounds on TNF α production by U937 cells
Experimental: Test on macrophage activity inhibition (antagonist test).
TNFα is produced in vitro using human monocytic cell strain U937. The production amount of TNFα is determined by ELISA KIT of Genzyme Corporation.
Evaluation is carried out in accordance with the method of Daniel-Issakani, et al. (Journal of Biological Chemistry, 264, 20240-20247 (1989)).
By 10 ng/ml of LPS (lipopolysaccharide), about 1 ng of TNFα is produced per 10^5 cells of U937 during 6 hours (designated as a standard production amount: 100%).
In the presence of 10 ng/ml of LPS, the concentration of each of the compounds obtained in the Examples at which the production amount of TNFα is suppressed to 50% of the standard production amount is determined and it is expressed as ED50%.

| Structure (SMILES) | IC50 ([1]; U-937) [nM] | melting point [°C] | IC50 [1] [nM] |
| --- | --- | --- | --- |
| CCCCCCCCCCCCCC(=O)O[C@H](CCCCCCCCCCC)CCO[C@H]1[C@H](OP(=O)(O)O)[C@@H](CO)OC(OC[C@H]2O[C@H](C(=O)O)[C@H](NC(=O)C[C@H](O)CCCCCCCCCCC)[C@@H](OCC[C@H](O)CCCCCCCCCCC)[C@@H]2O)[C@@H]1NC(C)=O (stereo partly drawn) [Example 1, 2,6-Anhydro-7-O-[2-acetylamino-2-deoxy-4-O-phosphono-3-O-{(R)-3-tetradecanoyloxytetradecyl}-D-glucopyranosyl]-3-{(R)-3-hydroxytetradecanoylamino}-4-O-{(R)-3-hydroxytetradecyl}-3-deoxy-D-glycero-D-ido-heptonic Acid] | 11 | – | – |
| CCCCCCCCCCCCCC(=O)O[C@H](CCCCCCCCCCC)CCO[C@@H]1[C@@H](NC(C)=O)[C@H](OC[C@H]2O[C@H](C(=O)O)[C@H](NC(=O)C[C@H](O)CCCCCCCCCCC)[C@@H](OCC[C@H](O)CCCCCCCCCCC)[C@@H]2O)O[C@H](COC)[C@H]1OP(=O)(O)O [Example 2, 2,6-Anhydro-7-O-[2-acetylamino-2-deoxy-6-O-methyl-4-O-phosphono-3-O-{(R)-3-tetradecanoyloxytetradecyl}-β-D-glucopyranosyl]-3-{(R)-3-hydroxytetradecanoylamino}-4-O-{(R)-3-hydroxytetradecyl}-3-deoxy-D-glycero-D-ido-heptonic Acid] | 0.61 | – | – |
| CCCCCCCCCCCCCC(=O)O[C@H](CCCCCCCCCCC)CCO[C@@H]1[C@@H](NC(C)=O)[C@H](OC[C@H]2O[C@H](C(=O)O)[C@H](NC(=O)C[C@H](O)CCCCCCCCCCC)[C@@H](OCC[C@H](O)CCCCCCCCCCC)[C@@H]2O)O[C@H](CF)[C@H]1OP(=O)(O)O [Example 3, 2,6-Anhydro-7-O-[2-acetylamino-2,6-dideoxy-6-fluoro-4-O-phosphono-3-O-{(R)-3-tetradecanoyloxytetradecyl}-β-D-glucopyranosyl]-3-{(R)-3-hydroxytetradecanoylamino}-4-O-{(R)-3-hydroxytetradecyl}-3-deoxy-D-glycero-D-ido-heptonic Acid] | 1.2 | – | – |
| CCCCCCCCCCCCO[C@H](CCCCCCCCCCC)CCO[C@@H]1[C@@H](NC(C)=O)[C@H](OC[C@H]2O[C@H](C(=O)O)[C@H](NC(=O)C[C@H](O)CCCCCCCCCCC)[C@@H](OCC[C@H](O)CCCCCCCCCCC)[C@@H]2O)O[C@H](CO)[C@H]1OP(=O)(O)O [Example 4, 2,6-Anhydro-7-O-[2-acetylamino-2-deoxy-3-O-{(R)-3-dodecyloxytetradecyl}-4-O-phosphono-β-D-glucopyranosyl]-3-{(R)-3-hydroxytetradecanoylamino}-4-O-{(R)-3-hydroxytetradecyl}-3-deoxy-D-glycero-D-ido-heptonic Acid] | 11 | 179 to 181 | – |
| CCCCCCCCCCCCO[C@H](CCCCCCCCCCC)CCO[C@@H]1[C@@H](NC(C)=O)[C@H](OC[C@H]2O[C@H](C(=O)O)[C@H](NC(=O)C[C@H](O)CCCCCCCCCCC)[C@@H](OCC[C@H](O)CCCCCCCCCCC)[C@@H]2O)O[C@H](COC)[C@H]1OP(=O)(O)O [Example 5, 2,6-Anhydro-7-O-[2-acetylamino-2-deoxy-3-O-{(R)-3-dodecyloxytetradecyl}-6-O-methyl-4-O-phosphono-β-D-glucopyranosyl]-3-{(R)-hydroxytetradecanoylamino}-4-O-{(R)-3-hydroxytetradecyl}-3-deoxy-D-glycero-D-ido-heptonic Acid] | – | – | 6.4 |
| CCCCCCCCCCCCO[C@H](CCCCCCCCCCC)CCO[C@@H]1[C@@H](NC(C)=O)[C@H](OC[C@H]2O[C@H](C(=O)O)[C@H](NC(=O)C[C@H](O)CCCCCCCCCCC)[C@@H](OCC[C@H](O)CCCCCCCCCCC)[C@@H]2O)O[C@H](CF)[C@H]1OP(=O)(O)O [Example 6] | – | – | 10 |
